From patent US7045528B2, “Benzofused heterozryl amide derivatives of thienopyridines useful as therapeutic agents, pharmaceutical compositions including the same, and methods for their use” (Agouron Pharmaceuticals, Inc., priority 2002, dated 2006) come the findings set out here.

One experiment has as its target T1, PDGFRβ (Homo sapiens, UniProt P09619).
T1 construct: expressed in transfected cells; host or cells: porcine aorta endothelial (PAE)-PDGFRβ cells
The experiment in a line: PAE-PDGFRβ phosphorylation in PAE-PDGFRB cells assay. Conditions: PAE cells overexpressing human PDGFRβ, PDGF-BB stimulated; read-out: PAE PDGFR autophos IC50 (nM) AVG. The format is cell-based. The essentials:
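PAE cells overexpressing human PDGFRβ, serum-starved 16 h (0.1% FBS), were given compound for 1 h at 37 °C (0.5% DMSO) and then stimulated with 1 μg/mL PDGF-BB plus 2 mM Na3VO4 for 8 min. Receptor autophosphorylation was read by capture ELISA (HRP-PY20, TMB, 450 nm); IC50 from 4-parameter fit.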

For experiment [1], the target named is T2, unphosphorylated VEGF-R2Δ50 (FLVK) (Homo sapiens, UniProt P35968, DEL940-989/E990V).
T2 construct: VEGF-R2Δ50 contains residues 806–939 and 990–1171; made in house; host or cells: baculovirus/insect cell system
Briefly: VEGF-R2 coupled spectrophotometric assay, unphosphorylated VEGF-R2Δ50 (FLVK). The format is biochemical. Conditions: unphosphorylated VEGF-R2Δ50; for inhibition at 0.05 µM: 50 nM compound, read-out: FLVK (% inh @ 50 nM). Summed up:
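Baculovirus-expressed human VEGF-R2Δ50 (kinase insert partly deleted, E990V), unphosphorylated form; ADP production coupled via PK/LDH to NADH oxidation, read at 340 nm. 20 mM poly(E4Y1), 3 mM ATP, 60 mM MgCl2, 2 mM MnCl2, 200 mM HEPES pH 7.5; 5–40 nM enzyme. Ki from Morrison tight-binding fit.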

The subject of experiment [2] is human umbilical vein endothelial cells (HUVEC). Briefly: HUVEC+VEGF proliferation assay. Format: cell-based. The following applies: Homo sapiens, HUVEC; VEGF 6 ng/mL, 72 h, MTT. Here is the method: HUVEC+VEGF Proliferation Assay
This assay determines the ability of a test compound to inhibit the growth factor-stimulated proliferation of human umbilical vein endothelial cells (“HUVEC”). HUVEC cells (passage 3–4; Clonetics, Corp.) were thawed into EGM2 culture medium (Clonetics Corp) in T75 flasks. Fresh EGM2 medium was added to the flasks 24 hours later. Four or five days later, cells were exposed to another culture medium (F12K medium supplemented with 10% fetal bovine serum (FBS), 60 μg/mL endothelial cell growth supplement (ECGS), and 0.1 mg/mL heparin). Exponentially-growing HUVEC cells were used in experiments thereafter. Ten to twelve thousand HUVEC cells were plated in 96-well dishes in 100 μl of rich, culture medium (described above). The cells were allowed to attach for 24 hours in this medium. The medium was then removed by aspiration and 105 μl of starvation media (F12K+1% FBS) was added to each well. After 24 hours, 15 μl of test agent dissolved in 1% DMSO in starvation medium or this vehicle alone was added into each treatment well; the final DMSO concentration was 0.1%. One hour later, 30 μl of VEGF (30 ng/mL) in starvation media was added to all wells except those containing untreated controls; the final VEGF concentration was 6 ng/mL. Cellular proliferation was quantified 72 hours later by MTT dye reduction, at which time cells were exposed for 4 hours MTT (Promega Corp.). Dye reduction was stopped by addition of a stop solution (Promega Corp.) and absorbance at 595 nm was determined on a 96-well spectrophotometer plate reader.

The subject of the next experiment is Huvec. The experiment in a line: bFGF Huvec proliferation. The format is cell-based, human. Conditions: Homo sapiens, HUVEC.

T2 sequence (P35968 with tags, fused parts or gaps DEL940-989/E990V limits assumed): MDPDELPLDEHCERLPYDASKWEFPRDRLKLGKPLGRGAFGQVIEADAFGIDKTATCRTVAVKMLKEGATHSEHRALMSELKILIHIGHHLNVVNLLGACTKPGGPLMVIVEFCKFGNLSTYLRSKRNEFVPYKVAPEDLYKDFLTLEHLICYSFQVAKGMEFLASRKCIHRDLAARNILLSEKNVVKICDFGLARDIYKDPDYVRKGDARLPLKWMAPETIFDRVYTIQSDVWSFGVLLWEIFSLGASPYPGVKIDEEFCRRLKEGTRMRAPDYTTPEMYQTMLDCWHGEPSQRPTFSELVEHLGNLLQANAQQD
T1 sequence (P09619 33-1106): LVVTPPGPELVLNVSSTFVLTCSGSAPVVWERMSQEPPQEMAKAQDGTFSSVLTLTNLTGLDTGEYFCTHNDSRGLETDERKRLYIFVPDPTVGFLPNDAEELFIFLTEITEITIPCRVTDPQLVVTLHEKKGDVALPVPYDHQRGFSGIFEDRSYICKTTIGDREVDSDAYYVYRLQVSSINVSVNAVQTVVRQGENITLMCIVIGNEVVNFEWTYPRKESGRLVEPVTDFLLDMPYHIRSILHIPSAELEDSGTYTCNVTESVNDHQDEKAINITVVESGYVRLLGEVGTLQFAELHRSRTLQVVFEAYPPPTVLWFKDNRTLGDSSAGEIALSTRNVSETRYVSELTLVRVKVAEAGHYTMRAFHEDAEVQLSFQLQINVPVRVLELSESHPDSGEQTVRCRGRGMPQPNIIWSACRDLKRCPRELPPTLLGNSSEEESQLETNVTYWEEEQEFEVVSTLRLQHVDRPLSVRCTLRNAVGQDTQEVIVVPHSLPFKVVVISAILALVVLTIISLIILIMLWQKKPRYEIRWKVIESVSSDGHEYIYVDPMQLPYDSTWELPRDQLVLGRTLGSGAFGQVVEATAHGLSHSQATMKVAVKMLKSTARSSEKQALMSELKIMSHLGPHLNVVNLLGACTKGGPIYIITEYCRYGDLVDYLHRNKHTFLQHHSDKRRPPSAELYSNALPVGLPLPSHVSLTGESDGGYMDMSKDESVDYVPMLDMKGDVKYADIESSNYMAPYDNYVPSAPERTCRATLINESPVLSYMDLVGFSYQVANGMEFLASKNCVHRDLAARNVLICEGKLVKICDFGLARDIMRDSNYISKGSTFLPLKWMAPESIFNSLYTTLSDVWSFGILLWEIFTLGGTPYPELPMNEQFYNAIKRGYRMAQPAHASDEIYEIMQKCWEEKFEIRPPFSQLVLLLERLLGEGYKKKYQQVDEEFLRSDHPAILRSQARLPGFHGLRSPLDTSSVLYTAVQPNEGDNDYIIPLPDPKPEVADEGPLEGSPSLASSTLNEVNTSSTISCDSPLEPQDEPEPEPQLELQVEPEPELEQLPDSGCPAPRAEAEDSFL

In the case of `CNC(=O)c1c(C)n(C)c2cc(Oc3ccnc4cc(C(=O)N5CC(O)C5)sc34)ccc12` [Example 30, 6-[2-(3-Hydroxy-azetidine-1-carbonyl)-thieno[3,2-b]pyridin-7-yloxy]-1,2-dimethyl-1H-indole-3-carboxylic acid methylamide], the half-inhibitory concentration (IC50) (as a rule, the midpoint of a concentration-inhibition curve) came out at 74 nM on PDGFRβ, 33.6 nM in experiment [2] and 10000 nM with Huvec. Moreover, the inhibition at 0.05 µM in experiment [1] worked out at 63%. In experiment [1], the Ki – broadly, the equilibrium dissociation constant of an inhibitor or competing ligand from its target – worked out at 6 nM.
As to `CNC(=O)c1c(C)n(C)c2cc(Oc3ccnc4cc(C(=O)N(C)C)sc34)ccc12` [Example 33, 7-({1,2-Dimethyl-3-[(methylamino)carbonyl]-1H-indol-6-yl}oxy)-N,N-dimethylthieno[3,2-b]pyridine-2-carboxamide], the figures for the IC50 (on PDGFRβ; in experiment [2]; with Huvec) were 63 nM, 10 nM and 10000 nM, respectively. In experiment [1], the inhibition at 0.05 µM amounted to 61%. Further, the inhibition constant (Ki) in experiment [1] is 11.5 nM.
`CNC(=O)c1c(C)n(C)c2cc(Oc3ccnc4cc(-c5ccncc5)sc34)ccc12` [Example 38, 1,2-Dimethyl-6-(2-pyridin-4-yl-thieno[3,2-b]pyridin-7-yloxy)-1H-indole-3-carboxylic acid methylamide]: the half-maximal inhibitory concentration (IC50) on PDGFRβ was 12.3 nM; in experiment [2] it was 27 nM; in the experiment with Huvec it was 10000 nM. Besides, the inhibition at 0.05 µM in experiment [1] is 60%. In experiment [1], this compound returned a Ki of 6.12 nM.
Turning to `CNC(=O)c1c(C)n(C)c2cc(Oc3ccnc4cc(-c5nc(C(C)(C)O)cs5)sc34)ccc12` [Example 40, 6-{2-[4(1-Hydroxy-1-methyl-ethyl)-thiazol-2-yl]-thieno[3,2-b]pyridin-7-yloxy}-1,2-dimethyl-1H-indole-3-carboxylic acid methylamide], the 50% inhibitory concentration (IC50) is 24.2 nM at PDGFRβ, 1.12 nM in experiment [2] and 7800 nM in the experiment on Huvec. Besides, the inhibition at 0.05 µM in experiment [1] was 77%. In experiment [1], this compound showed a Ki of 2.95 nM.
Regarding `CNC(=O)c1c(C)n(C)c2cc(Oc3ccnc4cc(-c5nccs5)sc34)ccc12` [Example 41, 1,2-Dimethyl-6-(2-thiazol-2-yl-thieno[3,2-b]pyridin-7-yloxy)-1H-indole-3-carboxylic acid methylamide], the IC50 at PDGFRβ was 22.1 nM; in experiment [2], 3.7 nM; with Huvec, 1220 nM. The inhibition at 0.05 µM in experiment [1] was 71%. The same compound returned a Ki in experiment [1] of 3.3 nM.
For the compound `CNC(=O)c1c(C)n(C)c2cc(Oc3ccnc4cc(C(=O)N5CCC(CNC(=O)OC(C)(C)C)C5)sc34)ccc12` (stereo not drawn) [Example 44, tert-Butyl (1-{[7-({1,2-dimethyl-3-[(methylamino)carbonyl]-1H-indol-6-yl}oxy)thieno[3,2-b]pyridin-2-yl]carbonyl}pyrrolidin-3-yl)methylcarbamate], the IC50 on PDGFRβ worked out at 21.3 nM; in experiment [2], 1.78 nM; with Huvec, 6040 nM. Moreover, the inhibition at 0.05 µM in experiment [1] came out at 87%. The same compound registered an inhibitory constant (Ki) in experiment [1] of 1.2 nM.
Take `CNC(=O)c1c(C)n(C)c2cc(Oc3ccnc4cc(-c5ccc(OC)cn5)sc34)ccc12` [Example 48, 6-[2-(5-Methoxy-pyridin-2-yl)-thieno[3,2-b]pyridin-7-yloxy]-1,2-dimethyl-1H-indole-3-carboxylic acid methylamide]: the values for the IC50 (at PDGFRβ; in experiment [2]; in the experiment with Huvec) were 21 nM, 0.94 nM and 239 nM, respectively. Further, the inhibition at 0.05 µM in experiment [1] was 91%.
Turning to `Cc1c(C(=O)NC2CC2)c2ccc(Oc3ccnc4cc(C(=O)N5CC[C@@H](O)C5)sc34)cc2n1C` [Example 53, 6-[2-((R)-3-Hydroxy-pyrrolidine-1-carbonyl)-thieno[3,2-b]pyridin-7-yloxy]-1,2-dimethyl-1H-indole-3-carboxylic acid cyclopropylamide], the IC50 at PDGFRβ came to 229 nM; in experiment [2], 1.8 nM; with Huvec, 7230 nM. Also, the inhibition at 0.05 µM in experiment [1] stood at 93%. Moreover, in experiment [1], the Ki worked out at 1.07 nM.
As for `Cc1c(C(=O)NC2CC2)c2ccc(Oc3ccnc4cc(C(=O)N5CCC[C@H]5CO)sc34)cc2n1C` [Example 54, N-Cyclopropyl-6-[(2-{[(2S)-2-(hydroxymethyl)pyrrolidin-1-yl]carbonyl}thieno[3,2-b]pyridin-7-yl)oxy]-1,2-dimethyl-1H-indole-3-carboxamide], the half-maximal inhibitory concentration (IC50) at PDGFRβ came to 133 nM; in experiment [2], 1.8 nM; in the experiment with Huvec it was 10000 nM. For the same compound, the inhibition at 0.05 µM in experiment [1] was found to be 89%. In experiment [1], the inhibition constant (Ki) is 1.71 nM.
On to `Cc1c(C(=O)NCC2CC2)c2ccc(Oc3ccnc4cc(C(=O)N5CC[C@@H](O)C5)sc34)cc2n1C` [Example 56], for which the 50% inhibitory concentration (IC50) at PDGFRβ was 109 nM; in experiment [2], 22 nM; in the experiment on Huvec, 10000 nM. In addition, in experiment [1], the inhibition at 0.05 µM worked out at 60%. In experiment [1], this compound gave an inhibition constant Ki of 3.8 nM.
With `CCCNC(=O)c1c(C)n(C)c2cc(Oc3ccnc4cc(C(=O)N5CCC[C@H]5CO)sc34)ccc12` [Example 58, 6-(2-[2-(S)Hydroxymethyl-pyrrolidine-1-carbonyl]thieno[3,2-b]pyridin-7-yloxy)-1,2-dimethyl-1H-indole-3-carboxylic acid propylamide], the IC50 at PDGFRβ came to 124 nM; in experiment [2], 3.65 nM; in the experiment on Huvec, 7830 nM. The inhibition at 0.05 µM in experiment [1] was determined as 55%. The compound further displayed a Ki in experiment [1] of 7.59 nM.
On to `CCCNC(=O)c1c(C)n(C)c2cc(Oc3ccnc4cc(C(=O)N5CC[C@@H](O)C5)sc34)ccc12` [Example 59, 6-[2-(3-Hydroxy-pyrrolidine-1-carbonyl)-thieno[3,2-b]pyridin-7-yloxy]-1,2-dimethyl-3H-indole-3-carboxylic acid propylamide], for which the IC50 is 115 nM at PDGFRβ, 0.045 nM in experiment [2] and 1160 nM in the experiment on Huvec. Moreover, in experiment [1], the inhibition at 0.05 µM was determined as 81%. Besides, affinity in experiment [1] was put at a Ki of 1.38 nM.
Take `CCCNC(=O)c1c(C)n(C)c2cc(Oc3ccnc4cc(-c5nccs5)sc34)ccc12` [Example 60, 1,2-Dimethyl-6-(2-thiazol-2-yl-thieno[3,2-b]pyridin-7-yloxy)1H-indole-3-carboxylic acid propylamide]: the IC50 stood at 38.3 nM on PDGFRβ, 1.34 nM in experiment [2] and 1700 nM with Huvec. In addition, the inhibition at 0.05 µM in experiment [1] came to 81%. Further, in experiment [1], the inhibition constant Ki was 2.17 nM.
For the compound `Cc1c(C(=O)NCCCO)c2ccc(Oc3ccnc4cc(C(=O)N5CCC5)sc34)cc2n1C` [Example 63, 6-[2-(Azetidine-1-carbonyl)-thieno[3,2-b]pyridin-7-yloxy}-1,2-dimethyl-1H-indole-3-carboxylic acid (3-hydroxy-propyl)-amide], the IC50 on PDGFRβ is 84 nM; in experiment [2], 10 nM; with Huvec, 10000 nM. In addition, in experiment [1], the inhibition at 0.05 µM was 67%. For the same compound, the affinity in experiment [1] corresponds to a Ki of 9.33 nM.
As to `Cc1c(C(=O)NCCCO)c2ccc(Oc3ccnc4cc(C(=O)N5CCCC5)sc34)cc2n1C` [Example 65, 1,2-Dimethyl-6-[2-(pyrrolidine-1-carbonyl)-thieno[3,2-b]pyridin-7-yloxy]-1H-indole-3-carboxylic acid (3-hydroxy-propyl)-amide], the IC50 at PDGFRβ is 59 nM; in experiment [2], 10 nM; in the experiment on Huvec, 10000 nM. The inhibition at 0.05 µM in experiment [1] is 65%. Moreover, in experiment [1], the affinity, expressed as Ki, was 7.97 nM.
Taken in the same sequence, the figures for `Cc1c(C(=O)Nc2ccccn2)c2ccc(Oc3ccnc4cc(-c5nccn5C)sc34)cc2n1C` [Example 69, 1,2-Dimethyl-6-[2-(1-methyl-1H-imidazol-2-yl)-thieno[3,2-b]pyridin-7-yloxy]-1H-indole-3-carboxylic acid pyridin-2-ylamide] were 6.52 nM, 0.57 nM, 4310 nM, 95% and 0.3 nM.
Turning to `Cc1c(C(=O)Nc2ccccn2)c2ccc(Oc3ccnc4cc(-c5nccs5)sc34)cc2n1C` [Example 70, 1,2-Dimethyl-6-(2-thiazol-2-yl-thieno[3,2-b]pyridin-7-yloxy)-1H-indole-3-carboxylic acid pyridin-2-ylamide], the results for the half-maximal inhibitory concentration (IC50) (on PDGFRβ; in experiment [2]; in the experiment with Huvec) were 47.1 nM, 0.537 nM and 3980 nM, respectively. Further, the inhibition at 0.05 µM in experiment [1] is 95%. In experiment [1], this compound had an inhibition constant (Ki) of 0.43 nM.
